SMILES strings stand for the structures. Values joined by “and” are separate entries in the source; they are usually repeats but may differ in a detail not shown here. Equal entries are not always repeated. Where two headings read alike, the source gives them in different places.

The test system of data set [1] is T. gondii (ΔKu80::mNeonGreen). Nature of the data set: T. gondii growth inhibition assay (mNeonGreen fluorescence). The format is cell-based, Toxoplasma gondii. Here is the method:
[…]. The rate of hydrolysis of C2 and C4 is closely correlated to the activity seen against T. gondii, such that the more readily the complex separates into its constituents, parts the better the overall activity.
To further investigate whether the accumulation of ROS was implicated in the MoA, the growth inhibition studies were repeated in the presence of the ROS scavenger N-acetyl cysteine (NAC) (Table 5).
Growth inhibition assays were performed in black, clear-bottomed 96 well plates preseeded with Human foreskin fibroblasts (HFFs) as described previously.[48] ΔKu80:mNeonGreen T. gondii were counted using a hemeocytometer and media from the host-cell seeded plate was aspirated and replaced with either 200 μL of D3 or 200 μL of media + 5000 parasites per well. Infected cells were incubated for 2 hours at 37 °C with 5% CO2 to allow for invasion. Following this, the media was removed and replaced with 100 μL fresh media. 100 μL of media containing 100 μM of the indicated drug in sterile DMSO was added and serially diluted. The parasites were then incubated for four days at 37 °C with 5% CO2 then flourescense read using the PHERAstar microplate reader. After removal of background, fluorescence values were normalised to untreated and plotted. Data analysis and non-linear regression was performed in Prism.

The subject of another data set is P. falciparum, NF54. Nature of the data set: P. falciparum growth inhibition assay (Malstat). The format is cell-based, Plasmodium falciparum. The settings on record: 72 h, maximum concentration tested 6000 nM, three independent experiments in triplicate, ± SEM, read-out: IC50 against P. falciparum, NF54. Here is the method: The antimalarial activities of C1 to C4 and F1 to F3 were determined against the wild-type drug sensitive strain of P. falciparum, NF54. […]. Further, a close link between activity and oxidation potentials of the drugs was found. The lower the oxidation potential of the ferrocene moiety, the higher the activity of the final compound, giving directions for future compound development.
The drugs were prepared as 10 mM stocks in sterile DMSO. The drugs were then diluted using freshly prepared growth medium to the desired testing concentrations. Chloroquine and artesunate were used as standards. A full dose–response was preformed using a 96-well plate assay and the IC50 values determined. The maximum concentration tested was 6 μM which was then serially diluted 2-fold in growth media. The plates were incubated at 37 °C for 72 h at 3% O2 and 4% CO2. After 72 h the wells were resuspended and 15 μL of the suspension was transferred to a duplicate plate containing 100 μL of Malstat reagent and 25 μL of nitroblue tetrazolium solution. The plates were allowed 20 minutes in the dark to develop and the absorbance of each well was measured using UV-Vis at 620 nm.

Data set [2] concerns T. gondii. Nature of the data set: Determination of intracellular ROS levels with CellROX by flow cytometry. The format is cell-based, Toxoplasma gondii. The settings on record: 5 μM, 6 hours, 50 000 parasites, vs untreated. How it is done: Since both ferrocene and artesunate are able to generate ROS, we attempted to quantify the intracellular ROS levels in the parasite using CellROX, a compound which fluoresces in the presence of ROS. Treatment with artesunate was included as positive control as previous studies have linked artesunate treatment to ROS accumulation.[44] The parasites were treated with 5 μM of complexes C1, C3 and C4, and incubated for 6 hours. […] Since T. gondii rely predominately on heme biosynthesis as opposed to incorporation of heme from host hemoglobin, the concentration of iron present in the parasite is lower.[45] But, by incorporating an iron center in the molecule the slower activation may be circumvented leading to quicker cell death and a decreased CellROX reading.
Fig. 5 CellROX fluorescence quantified by flow cytometry from 50 000 parasites. T. gondii were untreated (grey) or treated for 6 hours with 5 μM compounds (blue) or artesunate (red) as a positive control.
Intracellular parasites were treated with 5 μM of the drug and incubated at 37 °C with 5% CO2 for either 18 hours or 6 hours. The parasites were released from host cells by scraping and syringing followed by passing through 3 μm filters to remove host-cell debris. The parasites were spun down at 6000 RPM for 10 minutes and resuspended in 500 μL PBS. 100 μL of the parasite suspension was placed in a FACS tube and a stock solution of CellROX dye in PBS (1 : 125 dilution) was added to this. This was then incubated in the dark at 37 °C for 1 hour and then read using a BD Celesta. Parasites were gated on forward and side scatter and on mNeonGreen fluorescence and histograms of Cy5 signal presented. Data analysis was performed using Flowjo.

A short description of data set [3]: Aqueous stability (hydrolysis) by UV-Vis kinetic scan in 10% MeOH (aq). The format is physicochemical. Particulars: change in absorbance at 254 nm over one hour, ExpDec1 fit. How it is done:
Since biological systems are comprised of water, the behavior and stability of a drug in aqueous media is important. To determine the stability, each complex was dissolved in MeOH and then diluted to 10% MeOH (aq). The solutions were then monitored by UV-Vis spectroscopy using a kinetic scan in the range 190–1100 nm over 1 hour. […] Hydrolysis was also supported by RP-HPLC in which new peaks emerged corresponding to the starting ferrocene precursors, F2 and F4. […] […] The major difference being between C1/C2 and C3/C4 is the nature of the linkage either being an ester or an amide bond. It is expected that the hydrolysis of C2 would occur quicker due to the more labile nature of the ester bond.
UV-Vis studies were performed by dissolving each complex in methanol to a concentration of 1 mM. This was then diluted using distilled water in a 10% methanol/water mixture giving a final concentration of 100 μM. The complexes were then monitored using a kinetic scan between the range 190–1100 nm scanning each minute over the course of one hour. […]

The nature of data set [4]: Kinetic aqueous solubility, turbidimetric assay. The format is physicochemical. The settings on record: for solubility at 4 h: aqueous buffer, kinetic from dmso stock, absorbance 620 nm. How it is done: The kinetic solubility of the complexes was determined by means of a turbidimetric assay. The complexes were first dissolved in dimethyl sulfoxide (DMSO) which was then serially diluted in either phosphate buffered saline (PBS) or 4-(2-hydroxyethyl)-1-piperazineethanesulfonic acid (HEPES). The extent of precipitation was then measured using the absorbance at 620 nm.
PBS was prepared by dissolving one PBS tablet in 200 mL of distilled water at 25 °C yielding a buffered solution containing 10 mM phosphate buffer, 3.0 mM KCl and 140 mM NaCl. The pH was then confirmed to be at 7.4 with a pH meter. A 0.025 M HEPES buffer was prepared by dissolving HEPES free acid 5.00 mmol in distilled water (±180 mL) and titrating the solution with 0.100 M NaOH until a pH 7 was reached, the volume was then made up to 200 mL using distilled water. A 10.0 mM stock of each drug was prepared in DMSO. […] 4 μL of the drugs was then pipetted into a 96-well plate loaded with 196 μL of either the desired buffer solution or DMSO. The test plates were then incubated at 37 °C for 4 hours following which the UV-Vis absorbance was measured at 620 nm and the absorbances corrected by subtracting the blank.

The subject of a further data set is HEK293 cells. Nature of the data set: MTT cell viability assay, HEK293. The format is cell-based, human. Particulars: 48 h. Here is the method: (§1) To assess the cytotoxicity of the four compounds a MTT cell viability assay using human embryonic kidney (HEK293) and human prostatic (PNT1A) cell lines were performed. […] The long chain compounds C1 and C3 were also shown to be non-cytotoxic towards the HEK293 cell line.
(§2) The immortalised human prostatic epithelial cell line, PNT1A (Sigma Aldrich, 95012614) was cultured in RPMI-1640 containing 10% foetal calf serum (Life Technologies, South Africa). The human embryonic kidney cell line HEK293 (ATCC) was cultured in DMEM (Life Technologies, South Africa). Both cell lines were cultured at 37 °C under 5% CO2 with 1% penicillin and streptomycin. Cancer cell cytotoxicity was evaluated using the MTT viability assay according to our previous method.[49] Briefly, cells were seeded at a density of 3 × 10^3 cells per well in 96-well plates and allowed to settle overnight. A 100 mM stock of C1/C2 and a 50 mM stock solution of C3/C4 in DMSO was prepared from which dilutions were made. The compound was then added to the cells in triplicate to obtain the indicated concentrations and 0.1% DMSO. Controls included cells treated with […] DMSO alone. After 48 h, 10 μL of 5 mg mL^−1 MTT (3-(4,5-dimethylthiazol-2-yl)-2,5-diphenyltetrazolium bromide) (Sigma-Aldrich) was added, and incubated with the cells for 4 h, followed by addition of 100 μL 10% SLS, 0.01 M HCL. The plates were read at 595 nm on a Multiscan FC plate reader (Thermo Scientific) and the data was fitted to a variable slope dose–response curve using Graphpad prism v6 to obtain the cytotoxicity IC50. The assay was repeated independently three times where inhibition was observed.

Data set [5] is described as follows: Cyclic voltammetry (oxidation/reduction potentials). Particulars: Ag/AgCl electrode, scan rate 100 mV s^−1, 0.100 M [NBu4][PF6] in MeCN. The format is physicochemical.
The next data set has as its system PNT1A cells. The data set can be described thus: MTT cell viability assay, PNT1A. The format is cell-based, human. Particulars: 48 h. How it is done: as §1, §2
Data set [6] has as its system T. gondii. More on the design: method as in PMID 32968076. Particulars: read-out: IC50 against T. gondii; cited from earlier work.
Data set [7] has as its system clinically resistance (CQ-R) isolates of P. falciparum. Set-up: method as in PMID 21894260. Particulars: cited from earlier work.

With `C[C@H]1[C@H](OC(=O)CCC(=O)O)O[C@@H]2O[C@@]3(C)CC[C@H]4[C@H](C)CC[C@@H]1[C@@]24OO3` [Artesunate, artesunate], the IC50 stood at 200 ± 6 nM in data set [1] (Toxoplasma gondii, 96 h, read-out: IC50 against T. gondii); 310 ± 28 nM in [1] (Toxoplasma gondii, read-out: IC50 + NAC against T. gondii); 3 ± 1 nM with P. falciparum, NF54 (Plasmodium falciparum, NF54). In addition, the “Change in CellROX signal (intracellular ROS)” value with T. gondii [2] is “increase”.

Take `CC1CCC2C(C)C(OC(=O)CCC(=O)OC[c-]3cccc3)OC3OC4(C)CCC1C32OO4.[Fe+2].c1cc[cH-]c1` (centres unmarked) [Compound C2]: in data set [3], the Half-life amounted to 3.0 ± 0.16 min and the “Rate constant (hydrolysis)” value came out at 0.23 ± 0.013 min⁻¹. Further, in [4] (turbidimetric assay, buffer not named), the “Solubility range” value lay in the range of 23 to 47 µg/mL. In addition, the IC50 in data set [1] (four days, in HFF host cells, three independent experiments in triplicate, ± SEM, read-out: IC50 against T. gondii) is 280 ± 22 nM. Further, the IC50 with P. falciparum, NF54 turned out to be 19 ± 4 nM. The same compound registered an IC50 in the data set with HEK293 cells of 53000 ± 5700 nM. Besides, in [5], the “E 1/2” value was determined as 0.503 V, the “E Ox” value is reported as 0.561 V, the “E Red” value is on record as 0.445 V and the ΔE is listed as 0.116 V. The compound also displayed an IC50 with PNT1A cells of over 100000 nM.

For the compound `O=C(NCCO)[c-]1cccc1.[Fe+2].c1cc[cH-]c1` [Compound F1, N-(Hydroxyethyl)ferrocenamide], the IC50 in the data set with P. falciparum, NF54 is over 6000 nM.

On to `OC[c-]1cccc1.[Fe+2].c1cc[cH-]c1` [Compound F2, ferrocene methanol], for which the IC50 in the data set with P. falciparum, NF54 was found to be 3400 ± 96 nM.

With `NCCNC(=O)[c-]1cccc1.[Fe+2].c1cc[cH-]c1` [Compound F3, N-(2-aminoethyl)ferrocenamide], the IC50 in the data set on P. falciparum, NF54 was over 6000 nM.

In the case of `C[C@H]1[C@@H](O)O[C@@H]2O[C@@]3(C)CC[C@H]4[C@H](C)CC[C@@H]1[C@@]24OO3` [DHA, dihydroartemisinin], the IC50 in the data set on T. gondii [6] is about 66 nM.

For `[Fe+2].c1cc[cH-]c1.c1cc[cH-]c1` [Ferrocene, reference compound], in [5], the “E 1/2” value was 0.446 V, the “E Ox” value is recorded as 0.499 V, the “E Red” value is given as 0.393 V and the ΔE is given as 0.106 V.

Turning to `CN(C)Cc1ccc[c-]1CNc1ccnc2cc(Cl)ccc12.[Fe+2].c1cc[cH-]c1` (centres unmarked) [Ferroquine, ferroquine], in [7], the “Activity against CQ-R isolates of P. falciparum” value is reported as “less than 30 nM”.

Regarding `COC(=O)[C@H]1[C@H]2C[C@@H]3c4[nH]c5cc(OC)ccc5c4CCN3C[C@H]2C[C@@H](OC(=O)c2cc(OC)c(OC)c(OC)c2)[C@@H]1OC` [Reserpine, reference compound], the solubility at 4 h in [4] (HEPES buffer with 2% DMSO, HEPES pH 7, 37 °C, read-out: Aqueous solubility range, HEPES) is 40 µM to 80 µM and 24 µg/mL to 50 µg/mL; in [4] (phosphate buffered saline (PBS) with 2% DMSO, PBS pH 7.4, 37 °C, read-out: Aqueous solubility range, PBS), 20 µM to 40 µM and 12 µg/mL to 24 µg/mL.

Values taken from article PMC10628858, “Investigation of new ferrocenyl-artesunate derivatives as antiparasitics” (Dalton Transactions (Cambridge, England : 2003), 2023).
